From ChEMBL document CHEMBL1201862, “PubChem BioAssay data set” (2004)
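In this assay, cells in 96-well plates receive the compound at five concentrations for 48 hours. Endpoints are linearly interpolated between the surrounding concentrations. Here, GI50 denotes the concentration required for 50% inhibition of growth.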 Active and inactive are the calls of the source. Cut-off read from the data, not from the text of the source: active = GI50 up to about 1.1 µM and inactive = higher.

Key:
Experiment in all cases: NCI tumour cell line growth inhibition, 48 h
CCRF-CEM = test system: CCRF-CEM
COLO 205 = test system: COLO 205
HCT-116 = test system: HCT-116
HL-60 = test system: HL-60
HOP-62 = test system: HOP-62
HT-29 = test system: HT-29
IGROV-1 = test system: IGROV-1
MOLT-4 = test system: MOLT-4
Malme-3M = test system: Malme-3M
OVCAR-5 = test system: OVCAR-5
OVCAR-8 = test system: OVCAR-8
SF-539 = test system: SF-539
U-251 = test system: U-251
HCC 2998 = test system: HCC 2998
RPMI-8226 = test system: RPMI-8226

Measured: GI50

C/C=C/C=C/[C@H]1Cc2cc(O)cc(O)c2O1
inactive: CCRF-CEM 30.8 µM | COLO 205 55 µM | HCT-116 81.3 µM | HL-60 26.1 µM | HOP-62 > 100 µM | HT-29 72.4 µM | IGROV-1 > 100 µM | MOLT-4 31.8 µM | Malme-3M 52.5 µM | OVCAR-5 > 100 µM | OVCAR-8 60.4 µM | SF-539 > 100 µM | U-251 59.2 µM

C=CCC(OCCOCC)c1cc(OCCOCC)ccc1OC (centres undefined)
inactive: CCRF-CEM > 100 µM | COLO 205 > 100 µM | HCC 2998 > 100 µM | HL-60 > 100 µM | HOP-62 > 100 µM | HT-29 > 100 µM | IGROV-1 > 100 µM | MOLT-4 > 100 µM | Malme-3M > 100 µM | OVCAR-5 > 100 µM | OVCAR-8 > 100 µM | RPMI-8226 > 100 µM | SF-539 > 100 µM | U-251 > 100 µM

COC(=O)/C(=N\Nc1nc(S)nn1N)C(C#N)c1ccccc1 (centres undefined)
inactive: CCRF-CEM > 100 µM | COLO 205 > 100 µM | HCC 2998 > 100 µM | HCT-116 > 100 µM | HL-60 > 100 µM | HOP-62 > 100 µM | HT-29 > 100 µM | IGROV-1 > 100 µM | MOLT-4 > 100 µM | Malme-3M > 100 µM | OVCAR-5 > 100 µM | OVCAR-8 > 100 µM | RPMI-8226 > 100 µM | U-251 > 100 µM

O=C(O)c1ccccc1[Se][Se]c1ccccc1C(=O)O
inactive: CCRF-CEM 56 µM | COLO 205 > 100 µM | HCC 2998 89.7 µM | HCT-116 37.4 µM | HL-60 35.9 µM | HOP-62 29.7 µM | HT-29 35.1 µM | IGROV-1 51.6 µM | MOLT-4 43.8 µM | Malme-3M 47.2 µM | OVCAR-8 43.5 µM | RPMI-8226 66.2 µM | SF-539 23.4 µM | U-251 40.8 µM

O=c1[nH]c(=O)n(C2CC(O)C(CO)O2)cc1C#Cc1cc(F)cc(F)c1 (centres undefined)
inactive: CCRF-CEM > 100 µM | COLO 205 > 100 µM | HCC 2998 > 100 µM | HOP-62 > 100 µM | HT-29 > 100 µM | IGROV-1 > 100 µM | MOLT-4 > 100 µM | Malme-3M > 100 µM | OVCAR-5 > 100 µM | OVCAR-8 > 100 µM | RPMI-8226 > 100 µM | SF-539 > 100 µM | U-251 > 100 µM

COc1cc(/C=C(\NC(=O)c2ccccc2)c2nc3c(O)nc(S)nc3[nH]2)cc(OC)c1OC
inactive: CCRF-CEM > 100 µM | COLO 205 > 100 µM | HCC 2998 > 100 µM | HL-60 > 100 µM | HT-29 > 100 µM | IGROV-1 > 100 µM | MOLT-4 > 100 µM | Malme-3M > 100 µM | OVCAR-5 > 100 µM | OVCAR-8 > 100 µM | SF-539 > 100 µM | U-251 > 100 µM

CCCC(Sc1ccccc1)P(=O)(c1ccccc1)c1ccccc1 (centres undefined)
inactive: CCRF-CEM 29.9 µM | COLO 205 31.4 µM | HCT-116 31.3 µM | HL-60 22.3 µM | HOP-62 46.6 µM | MOLT-4 20.6 µM | OVCAR-8 36.2 µM | RPMI-8226 19 µM | SF-539 35.1 µM | U-251 23.5 µM

CC(=O)OCCOCNC(=S)N/N=C(\C)c1ccco1
inactive: CCRF-CEM > 100 µM | COLO 205 > 100 µM | HCC 2998 > 100 µM | HCT-116 > 100 µM | HOP-62 > 100 µM | HT-29 > 100 µM | IGROV-1 > 100 µM | Malme-3M > 100 µM | OVCAR-5 > 100 µM | OVCAR-8 > 100 µM | SF-539 > 100 µM | U-251 > 100 µM

COC(=O)c1nc(C(=O)OC)c2c([nH]c3ccccc32)c1C(=O)OC
inactive: CCRF-CEM 71.1 µM | COLO 205 > 100 µM | HCC 2998 > 100 µM | HCT-116 > 100 µM | HOP-62 > 100 µM | HT-29 > 100 µM | IGROV-1 > 100 µM | MOLT-4 82.6 µM | Malme-3M > 100 µM | OVCAR-5 > 100 µM | OVCAR-8 > 100 µM | SF-539 > 100 µM | U-251 99.8 µM

COC(=O)[C@@]1(C)C(=O)CC[C@@H]1C=O
inactive: CCRF-CEM > 100 µM | COLO 205 > 100 µM | HCT-116 > 100 µM | HL-60 60.5 µM | HOP-62 > 100 µM | HT-29 > 100 µM | IGROV-1 > 100 µM | MOLT-4 > 100 µM | Malme-3M > 100 µM | OVCAR-5 > 100 µM | OVCAR-8 > 100 µM | RPMI-8226 > 100 µM | SF-539 > 100 µM | U-251 > 100 µM

[O-][S+]1Cc2ccccc2CS1 (centres undefined)
inactive: COLO 205 15.4 µM | HCC 2998 29.7 µM | HCT-116 20.5 µM | HL-60 15.1 µM | HT-29 15.8 µM | IGROV-1 68.2 µM | MOLT-4 15.4 µM | Malme-3M 13.6 µM | OVCAR-5 18.2 µM | OVCAR-8 15 µM | RPMI-8226 13.9 µM | SF-539 11.4 µM | U-251 10.7 µM

CC(C)CS(=O)(=O)/C(=C(\c1ccc(Br)cc1)S(=O)(=O)CC(C)C)c1ccc(Br)cc1
inactive: CCRF-CEM > 100 µM | COLO 205 > 100 µM | HCC 2998 > 100 µM | HCT-116 > 100 µM | HOP-62 > 100 µM | HT-29 > 100 µM | IGROV-1 15.6 µM | MOLT-4 > 100 µM | Malme-3M > 100 µM | OVCAR-5 > 100 µM | OVCAR-8 > 100 µM | RPMI-8226 > 100 µM | SF-539 > 100 µM | U-251 > 100 µM

CS(=O)(=O)c1c(N)c2nc(Cl)cn2c2nc3ccccc3nc12
inactive: CCRF-CEM > 100 µM | COLO 205 > 100 µM | HCC 2998 > 100 µM | HCT-116 > 100 µM | HOP-62 > 100 µM | HT-29 > 100 µM | IGROV-1 > 100 µM | MOLT-4 > 100 µM | Malme-3M > 100 µM | OVCAR-5 > 100 µM | OVCAR-8 57.8 µM | RPMI-8226 > 100 µM | SF-539 > 100 µM | U-251 > 100 µM

CC(=O)Nc1ccc(S(=O)(=O)Nc2cnc3ccccc3n2)cc1
inactive: CCRF-CEM > 100 µM | COLO 205 > 100 µM | HCC 2998 > 100 µM | HL-60 > 100 µM | HOP-62 > 100 µM | HT-29 > 100 µM | IGROV-1 > 100 µM | MOLT-4 > 100 µM | Malme-3M > 100 µM | OVCAR-5 > 100 µM | OVCAR-8 > 100 µM | RPMI-8226 > 100 µM | SF-539 > 100 µM | U-251 > 100 µM

COc1ccc(/C=C2\CCC(CCN(C)C)(C3=CCCC3)C2=O)cc1Br (centres undefined)
inactive: CCRF-CEM 2.13 µM | COLO 205 1.58 µM | HCC 2998 2.33 µM | HCT-116 3.46 µM | HL-60 2.52 µM | HOP-62 14.5 µM | HT-29 2.59 µM | IGROV-1 4.54 µM | MOLT-4 2.7 µM | Malme-3M 13.8 µM | OVCAR-5 14 µM | OVCAR-8 9.08 µM | RPMI-8226 2.17 µM | SF-539 12.1 µM | U-251 5.82 µM
